Assay results: patent US20020137929A1, “1 - (3-heterocyclylphenyl) isothiourea, -isourea, -guanidine and -amidine herbicidal agents” (Intellectual Property Department, BASF Aktiengesellschaft, priority 1998, published 2002)

Tests used:
[1] = system: GALAP (Galium); assay: Postemergence herbicidal evaluation; format: in vivo, Galium aparine; conditions: postemergence
Procedure, shortened: (§1)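 Each compound, dispersed in an acetone/water mix (50/50) carrying 0.5% TWEEN 20, is nozzle-sprayed at 40 psi on approximately two-week-old seedlings at about 0.0156–0.500 kg/ha. Plants are assessed 4–5 weeks afterward on a 0–9 scale relative to control; duplicate tests are averaged.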

[2] = system: CHEAL (Lambsquarters, Common); assay: Preemergence herbicidal evaluation; format: in vivo, Chenopodium album; conditions: rated 4-5 weeks after treatment
Procedure, shortened: (§2)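 Test compound, dissolved in aqueous acetone, was sprayed over planted soil cups at an equivalent of about 0.0156 to 0.500 kg/ha; seeds had been mixed with potting soil. Greenhouse growth followed, with visual 0-9 scoring of injury at four to five weeks.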

[3] = system: ECHORC (Watergrass (Calif.)); assay: Preemergence weed control under flooded paddy conditions; format: in vivo, Echinochloa oryzoides; conditions: rated 3-4 weeks after treatment
Procedure, shortened: (§3)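 Ratings on a 0-9 visual scale cover stand, vigor, malformation, size, chlorosis and overall appearance relative to a control, taken three to four weeks post-treatment. Application was into flood water over freshly sown silt loam at roughly 0.0313 to 0.500 kg/ha.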

[4] = system: TRZAWR (Wheat, Winter, cv Riband); assay: Preemergence herbicidal evaluation; format: in vivo, Triticum aestivum; conditions: rated 4-5 weeks after treatment
Procedure, shortened: as §2

[5] = system: IPOHE (Morningglory, Ivyleaf); assay: Preemergence herbicidal evaluation; format: in vivo, Ipomoea hederacea; conditions: rated 4-5 weeks after treatment
Procedure, shortened: as §2

[6] = system: ZEAMX (Corn, Field); assay: Postemergence herbicidal evaluation; format: in vivo, Zea mays; conditions: postemergence
Procedure, shortened: as §1

[7] = system: ZEAMX (Corn, Field); assay: Preemergence herbicidal evaluation; format: in vivo, Zea mays; conditions: rated 4-5 weeks after treatment
Procedure, shortened: as §2

[8] = system: CASOB (Sicklepod); assay: Postemergence herbicidal evaluation; format: in vivo, Cassia obtusifolia; conditions: postemergence
Procedure, shortened: as §1

[9] = system: ECHORC (Watergrass (Calif.)); assay: Postemergence weed control under flooded paddy conditions; format: in vivo, Echinochloa oryzoides; conditions: postemergence weeds, 3-4 weeks after treatment
Procedure, shortened: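 Herbicidal effect is judged by eye on a 0–9 scale versus control, 3–4 weeks after dosing. Dosing is into flood water kept 1.5–3 cm over the soil, at about 0.0313–0.500 kg/ha in aqueous/acetone 50/50 v/v, on 3–5 cm weeds and 1.5–2.5-leaf rice seedlings.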

[10] = system: AMBEL (Ragweed, Common); assay: Preemergence herbicidal evaluation; format: in vivo, Ambrosia artemisifolia; conditions: rated 4-5 weeks after treatment
Procedure, shortened: as §2

[11] = system: ORYSAT (Rice, Tebonnet); assay: Preemergence herbicidal evaluation; format: in vivo, Oryza sativa, (L.) Tebonnet; conditions: rated 4-5 weeks after treatment
Procedure, shortened: as §2

[12] = system: CYPIR (Rice Flatsedge); assay: Preemergence weed control under flooded paddy conditions; format: in vivo, Cyperus iria; conditions: rated 3-4 weeks after treatment
Procedure, shortened: as §3

Cn1c(C(F)(F)F)cc(=O)n(-c2cc(N=C3SCC(=O)N3Cc3ccccc3)c(Cl)cc2F)c1=O [Compound 26]
2.0: Preemergence herbicidal rating IPOHE ([5]; rate 0.1250 kg/ha) | Preemergence herbicidal rating ZEAMX ([7]; rate 0.0625 kg/ha) | Herbicidal rating CYPIR ([12]; 0.0313 kg/ha)
7.0: Herbicidal rating ECHORC ([3]; 0.0313 kg/ha) | Herbicidal rating ECHORC ([9]; rate 0.0313 kg/ha) | Herbicidal rating CYPIR ([12]; 0.1250 kg/ha)
0.0: Preemergence herbicidal rating TRZAWR ([4]; rate 0.0156 kg/ha) | Preemergence herbicidal rating TRZAWR ([4]; rate 0.0313 kg/ha) | Preemergence herbicidal rating TRZAWR ([4]; rate 0.0625 kg/ha) | Preemergence herbicidal rating TRZAWR ([4]; rate 0.1250 kg/ha) | Preemergence herbicidal rating IPOHE ([5]; rate 0.0156 kg/ha) | Preemergence herbicidal rating IPOHE ([5]; rate 0.0313 kg/ha) | Preemergence herbicidal rating IPOHE ([5]; rate 0.0625 kg/ha) | Preemergence herbicidal rating ZEAMX ([7]; rate 0.0156 kg/ha) | Preemergence herbicidal rating ZEAMX ([7]; rate 0.0313 kg/ha) | CASOB herbicidal rating ([8]; rate 0.0156 kg/ha) | CASOB herbicidal rating ([8]; rate 0.0313 kg/ha) | CASOB herbicidal rating ([8]; rate 0.0625 kg/ha) | Preemergence herbicidal rating AMBEL ([10]; rate 0.0156 kg/ha) | Preemergence herbicidal rating AMBEL ([10]; rate 0.0313 kg/ha) | Preemergence herbicidal rating AMBEL ([10]; rate 0.0625 kg/ha) | Preemergence herbicidal rating ORYSAT ([11]; rate 0.0156 kg/ha) | Preemergence herbicidal rating ORYSAT ([11]; rate 0.0313 kg/ha) | Preemergence herbicidal rating ORYSAT ([11]; rate 0.0625 kg/ha) | Preemergence herbicidal rating ORYSAT ([11]; rate 0.1250 kg/ha) | Preemergence herbicidal rating ORYSAT ([11]; rate 0.2500 kg/ha)
1.0: Preemergence herbicidal rating TRZAWR ([4]; rate 0.2500 kg/ha)
3.5: ZEAMX herbicidal rating ([6]; rate 0.0156 kg/ha)
4.5: ZEAMX herbicidal rating ([6]; rate 0.0313 kg/ha)
3.0: GALAP herbicidal rating ([1]; rate 0.0156 kg/ha) | Preemergence herbicidal rating CHEAL ([2]; rate 0.0156 kg/ha) | Preemergence herbicidal rating IPOHE ([5]; rate 0.2500 kg/ha)
5.5: ZEAMX herbicidal rating ([6]; rate 0.0625 kg/ha)
4.0: Preemergence herbicidal rating ZEAMX ([7]; rate 0.1250 kg/ha) | Herbicidal rating CYPIR ([12]; 0.0625 kg/ha)
5.0: GALAP herbicidal rating ([1]; rate 0.0313 kg/ha) | GALAP herbicidal rating ([1]; rate 0.0625 kg/ha) | Preemergence herbicidal rating ZEAMX ([7]; rate 0.2500 kg/ha) | Preemergence herbicidal rating AMBEL ([10]; rate 0.1250 kg/ha) | Preemergence herbicidal rating AMBEL ([10]; rate 0.2500 kg/ha)
9.0: Preemergence herbicidal rating CHEAL ([2]; rate 0.0313 kg/ha) | Preemergence herbicidal rating CHEAL ([2]; rate 0.0625 kg/ha) | Preemergence herbicidal rating CHEAL ([2]; rate 0.1250 kg/ha) | Preemergence herbicidal rating CHEAL ([2]; rate 0.2500 kg/ha) | Herbicidal rating ECHORC ([3]; 0.0625 kg/ha) | Herbicidal rating ECHORC ([3]; 0.1250 kg/ha) | Herbicidal rating ECHORC ([3]; 0.2500 kg/ha) | Herbicidal rating ECHORC ([9]; rate 0.0625 kg/ha) | Herbicidal rating ECHORC ([9]; rate 0.1250 kg/ha) | Herbicidal rating ECHORC ([9]; rate 0.2500 kg/ha) | Herbicidal rating CYPIR ([12]; 0.2500 kg/ha)

CCOC(=O)CN1C(=O)CN(C)C1=Nc1cc(-n2c(=O)cc(C(F)(F)F)n(C)c2=O)c(F)cc1Cl [Compound 25, Ethyl 2-{{2-chloro-5-[3,6-dihydro-3-methyl-2,6-dioxo-4-(trifluoromethyl)-1(2H)-pyrimidinyl]-4-fluorophenyl}imino}-3-methyl-5-oxo-1-imidazolidineacetate]
5.5: ZEAMX herbicidal rating ([6]; rate 0.0313 kg/ha)
2.0: GALAP herbicidal rating ([1]; rate 0.0156 kg/ha) | TRZAWR preemergence herbicidal rating ([4]; rate 0.0625 kg/ha) | IPOHE preemergence herbicidal rating ([5]; rate 0.1250 kg/ha) | Preemergence herbicidal rating AMBEL ([10]; rate 0.0313 kg/ha) | ORYSAT preemergence herbicidal rating ([11]; rate 0.1250 kg/ha)
6.0: Herbicidal rating ECHORC ([3]; 0.0625 kg/ha) | TRZAWR preemergence herbicidal rating ([4]; rate 0.2500 kg/ha) | ZEAMX preemergence herbicidal rating ([7]; rate 0.0625 kg/ha) | Herbicidal rating ECHORC ([9]; rate 0.0625 kg/ha)
3.0: TRZAWR preemergence herbicidal rating ([4]; rate 0.1250 kg/ha)
1.0: Preemergence herbicidal rating TRZAWR ([4]; rate 0.0313 kg/ha)
8.0: ZEAMX preemergence herbicidal rating ([7]; rate 0.1250 kg/ha)
5.0: GALAP herbicidal rating ([1]; rate 0.0313 kg/ha) | IPOHE preemergence herbicidal rating ([5]; rate 0.2500 kg/ha) | ORYSAT preemergence herbicidal rating ([11]; rate 0.2500 kg/ha)
7.0: GALAP herbicidal rating ([1]; rate 0.0625 kg/ha) | Preemergence herbicidal rating CHEAL ([2]; rate 0.0156 kg/ha) | Herbicidal rating ECHORC ([3]; 0.1250 kg/ha) | ZEAMX herbicidal rating ([6]; rate 0.0625 kg/ha) | Herbicidal rating ECHORC ([9]; rate 0.1250 kg/ha)
4.0: Herbicidal rating ECHORC ([3]; 0.0313 kg/ha) | Herbicidal rating ECHORC ([9]; rate 0.0313 kg/ha)
0.0: Preemergence herbicidal rating TRZAWR ([4]; rate 0.0156 kg/ha) | Preemergence herbicidal rating IPOHE ([5]; rate 0.0156 kg/ha) | Preemergence herbicidal rating IPOHE ([5]; rate 0.0313 kg/ha) | IPOHE preemergence herbicidal rating ([5]; rate 0.0625 kg/ha) | Preemergence herbicidal rating ZEAMX ([7]; rate 0.0156 kg/ha) | Preemergence herbicidal rating ZEAMX ([7]; rate 0.0313 kg/ha) | CASOB herbicidal rating ([8]; rate 0.0156 kg/ha) | CASOB herbicidal rating ([8]; rate 0.0313 kg/ha) | CASOB herbicidal rating ([8]; rate 0.0625 kg/ha) | Preemergence herbicidal rating AMBEL ([10]; rate 0.0156 kg/ha) | Preemergence herbicidal rating ORYSAT ([11]; rate 0.0156 kg/ha) | Preemergence herbicidal rating ORYSAT ([11]; rate 0.0313 kg/ha) | ORYSAT preemergence herbicidal rating ([11]; rate 0.0625 kg/ha) | Herbicidal rating CYPIR ([12]; 0.0313 kg/ha) | Herbicidal rating CYPIR ([12]; 0.0625 kg/ha) | Herbicidal rating CYPIR ([12]; 0.1250 kg/ha) | Herbicidal rating CYPIR ([12]; 0.2500 kg/ha)
3.5: ZEAMX herbicidal rating ([6]; rate 0.0156 kg/ha)
9.0: Preemergence herbicidal rating CHEAL ([2]; rate 0.0313 kg/ha) | CHEAL preemergence herbicidal rating ([2]; rate 0.0625 kg/ha) | CHEAL preemergence herbicidal rating ([2]; rate 0.1250 kg/ha) | CHEAL preemergence herbicidal rating ([2]; rate 0.2500 kg/ha) | Herbicidal rating ECHORC ([3]; 0.2500 kg/ha) | ZEAMX preemergence herbicidal rating ([7]; rate 0.2500 kg/ha) | Herbicidal rating ECHORC ([9]; rate 0.2500 kg/ha) | AMBEL preemergence herbicidal rating ([10]; rate 0.0625 kg/ha) | AMBEL preemergence herbicidal rating ([10]; rate 0.1250 kg/ha) | AMBEL preemergence herbicidal rating ([10]; rate 0.2500 kg/ha)
